Assay results taken from PMC9570838, “JND4135, a New Type II TRK Inhibitor, Overcomes TRK xDFG and Other Mutation Resistance In Vitro and In Vivo” (Molecules, 2022).

Legend:
BaF3 ETV6-TRKC-G696C = assay: BaF3 cell proliferation, CCK-8 assay; conditions: Mus musculus, BaF3, 72 h, read-out: IC50 (nM ± SD) xDFG ETV6-TRKC-G696C
Protocol: (§4) Murine BaF3 cells were purchased from JRCB cell bank. The BaF3 cell lines, which stably express natively-fused TRKA/B/C or various point mutants, were self-established by following previously described procedures. Briefly, NTRK genes were totally synthesized and cloned into pCDNA3.1(+) vectors (Invitrogen, Carlsbad, CA, USA). […] Stable strains were established by selection of cells 2 weeks post-transfection with 800 μg/mL G418 (Merck, Whitehouse Station, NJ) and further selection after the withdrawal of interleukin-3 (IL-3, R&D) for 2 weeks. All of BaF3 stable cell lines were verified by DNA sequencing, protein expression and anti-proliferation activity against positive drugs. […] All cells were grown at 37 °C in a humidified 5% CO2 atmosphere.
(§5) Cells were placed in 96-well plates (5000~8000/well) in complete medium. […] IC50 values were calculated by concentration-response curve fitting using GraphPad Prism 5.0 software. Each IC50 value is expressed as mean ± SD.

[1] = Pharmacokinetics in rats (Table S4); type: in vivo
BaF3 ETV6-TRKB = assay: BaF3 cell proliferation, CCK-8 assay; conditions: Mus musculus, BaF3, 72 h, read-out: IC50 (nM ± SD) WT ETV6-TRKB
Protocol: as §4, §5

[2] = test system: BaF3-CD74-TRKA-G667C cells (p-TRKA, ERK, PLCγ); assay: Western blot of TRK signaling; type: cell-based, Murine; conditions: 6 h treatment
Protocol: (§1) Cells were treated with various concentrations of each tested compound for a designated time. Then cells were lysed using 1 × SDS sample lysis buffer (CST recommended) with protease and phosphatase inhibitors. […] The films were blocked with 5% fat-free milk in TBS solution containing 0.5% Tween-20 for 4 h at room temperature, then incubated with the corresponding primary antibody (1:1000–1:200) overnight at 4 °C. After washing with TBST, HRP-conjugated secondary antibody was incubated for 2 h. The protein signals were visualized by ECL Western Blotting Detection Kit (Thermo Scientific, Waltham, MA, USA), and detected with Amersham Imager 600 system (GE, Boston, MA, USA).

[3] = test system: BaF3-CD74-TRKA-G595R cells (p-TRKA, ERK, PLCγ); assay: Western blot of TRK signaling; type: cell-based, Murine; conditions: 6 h treatment
Protocol: as §1

[4] = test system: BaF3-CD74-TRKA-WT cells (p-TRKA, ERK, PLCγ); assay: Western blot of TRK signaling; type: cell-based, Murine; conditions: 6 h treatment
Protocol: as §1

[5] = test system: parental BaF3 cells (phospho-ERK); assay: Western blot in parental BaF3 cells (Figure S1); type: cell-based, Murine; conditions: parental BaF3 cells driven by IL-3 (Figure S1)
Protocol: as §1

BaF3 CD74-TRKA-F589L = assay: BaF3 cell proliferation, CCK-8 assay; conditions: Mus musculus, BaF3, 72 h, read-out: IC50 (nM ± SD) Gatekeeper CD74-TRKA-F589L
Protocol: as §4, §5

BaF3 MPRIP-TRKA = assay: BaF3 cell proliferation, CCK-8 assay; conditions: Mus musculus, BaF3, 72 h, read-out: IC50 (nM ± SD) WT MPRIP-TRKA
Protocol: as §4, §5

TRKC-G696C = biological target: T1, TRKC-G696C (Homo sapiens, UniProt Q16288, G696C); assay: Bio-layer interferometry (BLI) Octet binding assay
T1 construct: residues 526–839 from the kinase domain; made in house
Protocol: Biolayer interferometry (BLI) assays were performed with the Octet K2 machine (ForteBio, Inc., Fremont, CA, USA). […] A duplicate set of sensors was incubated in an assay buffer (PBS containing 0.02% Tween20 and 0.1% BSA) with 5% DMSO but without protein for use as a background binding control. Both sets of sensors were blocked with a solution of 10 μg/mL biocytin for 1 min at rt. […] Data was analyzed by the FortéBio Data Analysis 8.1 software (FortéBio, Fremont, CA, USA) using a double reference subtraction (sample and sensor references).

BaF3 QKI-TRKB = assay: BaF3 cell proliferation, CCK-8 assay; conditions: Mus musculus, BaF3, 72 h, read-out: IC50 (nM ± SD) WT QKI-TRKB
Protocol: as §4, §5

[6] = test system: BaF3 cells with solvent front mutations (TRKA^G595R, TRKB^G639R, TRKC^G623R); assay: BaF3 cell proliferation, summary over solvent front lines; conditions: Mus musculus, BaF3, read-out: IC50 range in cells with solvent front mutations
Protocol: as §4, §5

TRKA-G667C = TRKA-G667C (Homo sapiens, UniProt P04629, G667C); assay: FRET-based Z'-Lyte kinase assay; type: biochemical
Protocol: (§2) TRKA/B/C and the Z′-Lyte Kinase Assay Kit were purchased from Invitrogen. Assays were performed according to the manufacturer’s instructions. […] The solutions of the compounds were diluted from 10^−10 M to […] in DMSO and a 400 μM solution of the compound was prepared with 4 μL of the solution of the compound dissolved in 96 μL water. […] For each assay, 10 μL of a kinase solution, including 2.5 μL of the compound solution, 5 μL of the kinase/peptide mixture, and 2.5 μL of the ATP solution was prepared. The plate wells were mixed thoroughly and incubated for 1 h at room temperature (rt). Then 5 μL of the development solution was added to each well and the plate was incubated for 1 h at rt; the […] were cleaved in this time. Finally, 5 μL of stop reagent was added to stop the reaction. For the control setting, 5 μL of the phosphopeptide solution instead of the kinase/peptide mixture was used as a 100% phosphorylation control. […] The plate was measured on an EnVision Multilabel Reader (Perkin-Elmer). Curve fitting and data presentation was performed using GraphPad Prism, version 5.0. Every experiment was repeated at least 2 times.

TRKB = biological target: T2, TRKB (Homo sapiens, UniProt Q16620); assay: FRET-based Z'-Lyte kinase assay; type: biochemical; conditions: mean ± SD, read-out: IC50 TRKB kinase inhibition
T2 construct: purchased Invitrogen
Protocol: as §2

TRKC = biological target: T3, TRKC (Homo sapiens, UniProt Q16288); assay: FRET-based Z'-Lyte kinase assay; type: biochemical; conditions: mean ± SD, read-out: IC50 TRKC kinase inhibition
T3 construct: purchased Invitrogen
Protocol: as §2

TRKC WT [7] = biological target: T4, TRKC WT (Homo sapiens, UniProt Q16288); assay: Bio-layer interferometry (BLI) Octet binding assay
T4 construct: residues 526–839 from the kinase domain; made in house
Protocol: (§3) Biolayer interferometry (BLI) assays were performed with the Octet K2 machine (ForteBio, Inc., Fremont, CA, USA). […] Excess biotin was removed by column chromatography (PD MiniTrap^TM G-25 Desalting column, Lot#17030445), and the residue was diluted to 400 μL with PBS and immobilized onto Super streptavidin biosensor chips (ForteBio, Cat#18–5057). A duplicate set of sensors was incubated in an assay buffer (PBS containing 0.02% Tween20 and 0.1% BSA) with 5% DMSO but without protein for use as a background binding control. Both sets of sensors were blocked with a solution of 10 μg/mL biocytin for 1 min at rt. Drug concentrations ranged from 0.74 to 180 nmol/L (6 doses). Data was analyzed by the FortéBio Data Analysis 8.1 software (FortéBio, Fremont, CA, USA) using a double reference subtraction (sample and sensor references).

TRKC WT [8] = assay: Bio-layer interferometry (BLI) Octet binding assay; parameters: species or system Human; conditions: TRKC-WT and TRKC-G696C
Protocol: as §3

## Cc1c(C#Cc2cnc3cnc(-c4ccc(N)cc4)cn23)cccc1C(=O)Nc1cc(CN2CCN(C)CC2)cc(C(C)C)c1 [JND4135, 3-((6-(4-aminophenyl)imidazo[1,2-a]pyrazin-3-yl)ethynyl)-N-(3-isopropyl-5-((4-methylpiperazin-1-yl)methyl)phenyl)-2-methylbenzamide]
BaF3 ETV6-TRKC-G696C
  IC50: 1.3 ± 0.7 nM
[1]
  absorption via oral administration: almost no absorption
BaF3 ETV6-TRKB
  IC50: 23.1 ± 5.9 nM
[2]
  concentration from which phosphorylation of TRKA and downstream ERK, PLCγ decreased: 1.6 nM
[3]
  concentration from which phosphorylation of TRKA and downstream ERK, PLCγ decreased: 40 nM
[4]
  concentration from which phosphorylation of TRKA and downstream ERK, PLCγ decreased: 8 nM
[5]
  effect on phospho-ERK levels: increased the phospho-ERK levels
BaF3 CD74-TRKA-F589L
  IC50: 75 ± 12.7 nM
BaF3 MPRIP-TRKA
  IC50: 7.1 ± 2.3 nM
TRKC-G696C; Koff, read-out: dissociation rate with TRKC-G696C
  koff: 0.00135 s⁻¹
TRKC-G696C; read-out: Kd, binding affinity to TRKC-G696C
  Kd: 3.68 nM
BaF3 QKI-TRKB
  IC50: 2.4 ± 0.6 nM
[6]
  IC50: 9.4 to 33.7 nM
TRKA-G667C
  fold stronger kinase inhibition of TRKA-G667C than TRKA-WT: 3.3 fold
TRKA-G667C; Z'-Lyte, mean ± SD, read-out: IC50 TRKA-G667C kinase inhibition
  IC50: 0.83 ± 0.06 nM
TRKB
  IC50: 3.19 ± 1.76 nM
TRKC
  IC50: 3.01 ± 0.43 nM
TRKC WT [7]; Koff, read-out: dissociation rate with TRKC-WT
  koff: 0.000278 s⁻¹
TRKC WT [7]; read-out: Kd, binding affinity to TRKC-WT
  Kd: 2.57 nM
TRKC WT [8]
  fold slower dissociation rate than that of control drugs: 3.81–27.85 fold
